± gives the standard deviation of the averaged measurements.
What follows are test systems tested with CC(=O)NCC(=O)N1[C@@H]2CC[C@H]1c1ccc(Nc3ncc(C(F)(F)F)c(NC4CCC4)n3)cc12 (assay: surviving fraction relative to DMSO-only wells; higher = less growth inhibition). Details: 10 nM; exposure time: 5 days.
Outline: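 Viability values are CellTiter-Glo luminescence readings, given as surviving fraction against the median of DMSO-only wells. The readings were taken after 10 minutes at room temperature, following five days of continuous exposure to inhibitors at 0.5, 1, 5, 10, 50, 100, 500 and 1000 nM that began 24 hours after log-phase tumour cell lines were seeded at 250–500 cells per well in 384-well plates. Every line was screened three times and kept only if replicate Pearson r >0.7 and median Z' >0.3.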

Test System | surviving fraction
ZR751 BREAST | 0.925 ± 0.04

Same assay, conditions: 50 nM; exposure time: 5 days

Test System | surviving fraction
MG63 BONE | 0.816 ± 0.003
MHM BONE | 0.986 ± 0.034
NCIH441 LUNG | 0.991 ± 0.022
NOS1 BONE | 0.84 ± 0.062
NY BONE | 0.69 ± 0.011
OS25HAL BONE | 0.796 ± 0.062
OSHN BONE | 0.991 ± 0.02
RDES SOFT TISSUE | 1.07 ± 0.17
SCC47 HEADNECK | 1.01 ± 0.086
SCC90 HEADNECK | 0.66 ± 0.13
SG27 HEADNECK | 0.948 ± 0.054
SG28 HEADNECK | 0.949 ± 0.11
SG31 HEADNECK | 0.913 ± 0.052
SG32 HEADNECK | 0.758 ± 0.26
SG43 HEADNECK | 0.703 ± 0.22
SIHA CERVIX | 1.01 ± 0.064
SJSA1 BONE | 1.07 ± 0.026
SKBR3 BREAST | 0.762 ± 0.06
SNU475 LIVER | 0.902 ± 0.035
SUM44 BREAST | 1.09 ± 0.025
SUM149.B1*.S BREAST | 0.938 ± 0.047
SUM159 BREAST | 0.956 ± 0.085
SYO1 SYNOVIAL | 0.388 ± 0.06
T47D BREAST | 1.16 ± 0.025
U2OS BONE | 0.725 ± 0.015
VCAP PROSTATE | 0.681 ± 0.075
VP229 BREAST | 0.917 ± 0.046
YAMATO SYNOVIAL | 0.994 ± 0.005
ZR751 BREAST | 0.774 ± 0.1

Same assay, conditions: 100 nM; exposure time: 5 days

Test System | surviving fraction
MG63 BONE | 0.594 ± 0.021
MHM BONE | 0.96 ± 0.041
NCIH441 LUNG | 0.856 ± 0.049
NOS1 BONE | 0.724 ± 0.055
NY BONE | 0.672 ± 0.025
OS25HAL BONE | 0.605 ± 0.092
OSHN BONE | 0.206 ± 0.0076
RDES SOFT TISSUE | 0.245 ± 0.018
SCC47 HEADNECK | 0.904 ± 0.058
SCC90 HEADNECK | 0.62 ± 0.084
SG27 HEADNECK | 0.872 ± 0.043
SG28 HEADNECK | 0.828 ± 0.015
SG31 HEADNECK | 0.705 ± 0.069
SG32 HEADNECK | 0.474 ± 0.036
SG43 HEADNECK | 0.682 ± 0.093
SIHA CERVIX | 0.801 ± 0.046
SJSA1 BONE | 0.95 ± 0.019
SKBR3 BREAST | 0.892 ± 0.14
SNU475 LIVER | 0.804 ± 0.035
SUM44 BREAST | 1.27 ± 0.045
SUM149.B1*.S BREAST | 0.685 ± 0.049
SUM159 BREAST | 0.72 ± 0.027
SYO1 SYNOVIAL | 0.266 ± 0.027
T47D BREAST | 1.09 ± 0.013
U2OS BONE | 0.483 ± 0.0044
VCAP PROSTATE | 0.603 ± 0.016
VP229 BREAST | 0.548 ± 0.016
YAMATO SYNOVIAL | 0.738 ± 0.023
ZR751 BREAST | 1.04 ± 0.094

Same assay, conditions: 500 nM; exposure time: 5 days

Test System | surviving fraction
MG63 BONE | 0.298 ± 0.021
MHM BONE | 0.764 ± 0.02
NCIH441 LUNG | 0.626 ± 0.08
NOS1 BONE | 0.302 ± 0.017
NY BONE | 0.432 ± 0.025
OS25HAL BONE | 0.428 ± 0.069
OSHN BONE | 0.407 ± 0.036
RDES SOFT TISSUE | 0.249 ± 0.025
SCC47 HEADNECK | 0.542 ± 0.02
SCC90 HEADNECK | 0.665 ± 0.048
SG27 HEADNECK | 0.843 ± 0.061
SG28 HEADNECK | 0.682 ± 0.048
SG31 HEADNECK | 0.749 ± 0.076
SG32 HEADNECK | 0.432 ± 0.095
SG43 HEADNECK | 0.579 ± 0.039
SIHA CERVIX | 0.631 ± 0.046
SJSA1 BONE | 0.6 ± 0.013
SKBR3 BREAST | 1.13 ± 0.039
SNU475 LIVER | 0.686 ± 0.079
SUM44 BREAST | 1.4 ± 0.056
SUM149.B1*.S BREAST | 0.569 ± 0.024
SUM159 BREAST | 0.56 ± 0.014
SYO1 SYNOVIAL | 0.2212 ± 0.0014
T47D BREAST | 1.12 ± 0.018
U2OS BONE | 0.314 ± 0.016
VCAP PROSTATE | 0.433 ± 0.021
VP229 BREAST | 0.624 ± 0.031
YAMATO SYNOVIAL | 0.622 ± 0.022
ZR751 BREAST | 0.815 ± 0.062

Same assay, conditions: 1000 nM; exposure time: 5 days

Test System | surviving fraction
MG63 BONE | 0.227 ± 0.007
MHM BONE | 0.629 ± 0.028
NCIH441 LUNG | 0.588 ± 0.0087
NOS1 BONE | 0.219 ± 0.028
NY BONE | 0.129 ± 0.0021
OS25HAL BONE | 0.264 ± 0.029
OSHN BONE | 0.218 ± 0.011
RDES SOFT TISSUE | 0.195 ± 0.0049
SCC47 HEADNECK | 0.521 ± 0.047
SCC90 HEADNECK | 0.613 ± 0.017
SG27 HEADNECK | 0.919 ± 0.05
SG28 HEADNECK | 0.601 ± 0.075
SG31 HEADNECK | 0.717 ± 0.1
SG32 HEADNECK | 0.398 ± 0.023
SG43 HEADNECK | 0.569 ± 0.069
SIHA CERVIX | 0.531 ± 0.034
SJSA1 BONE | 0.531 ± 0.014
SKBR3 BREAST | 0.865 ± 0.17
SNU475 LIVER | 0.529 ± 0.041
SUM44 BREAST | 1.26 ± 0.051
SUM149.B1*.S BREAST | 0.499 ± 0.043
SUM159 BREAST | 0.436 ± 0.0095
SYO1 SYNOVIAL | 0.237 ± 0.013
T47D BREAST | 1.07 ± 0.013
U2OS BONE | 0.225 ± 0.011
VCAP PROSTATE | 0.327 ± 0.038
VP229 BREAST | 0.556 ± 0.057
YAMATO SYNOVIAL | 0.543 ± 0.058
